Experimental findings from PubChem BioAssay (NCI) are described below.

What all share (assay): DTP human tumour cell line panel, 48 h
For experiment [1], the system named is A498 renal.
Experiment [2] deals with A549 NSCLC.
Experiment [3] has as its system CAKI-1 renal.
Experiment [4] deals with COLO 205 colon.
Experiment [5] deals with EKVX NSCLC.
In experiment [6] the test system is HCT-116 colon.
Experiment [7] deals with HCT-15 colon.
The test system of experiment [8] is HL-60(TB) leukemia.
The test system of experiment [9] is HS 578T breast.
The test system of experiment [10] is HT29 colon.
For experiment [11], the system named is K-562 leukemia.
The test system of experiment [12] is LOX IMVI melanoma.
Experiment [13] relates to NCI/ADR-RES ovarian.
The test system of experiment [14] is OVCAR-3 ovarian.
Experiment [15] concerns OVCAR-4 ovarian.
In experiment [16] the test system is SK-MEL-2 melanoma.
For experiment [17], the system named is SN12C renal.
Experiment [18] relates to UO-31 renal.
In experiment [19] the test system is HCC-2998 colon.

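Cultured in 96-well plates, cells were exposed to test compound for 48 hours across five concentrations. TGI marks complete inhibition of growth.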 *1 amine or outer side, *2 acyl side, *3 side chain or, on linkers, in order; H or OH if unused. Where a SMILES comes first, the peptide text is derived from it. [ ]: non-standard residue; d: D form. The star is where a group is joined. X31 = CC(=O)N(C)SCC(N[*:1])C(=O)[*:2]; X47 = CC(=O)N(C)SCC(N*)/C(O)=N\O; Cbz = O=C(OCc1ccccc1)*; Bn = c1ccc(C*)cc1; For = O=C* A value given as a limit tells only on which side of the number the result lay.

Consider `Cc1ccc(-c2nc(C)c(C(=O)Nc3ccc(Cl)cc3)s2)cc1`, for which the TGI – broadly, the concentration at which net growth stops – is 41.5 µM in [1]; more than 100 µM in experiment [2]; 40.8 µM in experiment [3]; more than 100 µM in experiment [4]; more than 100 µM in experiment [5]; 41.2 µM in [6]. Also, the TGI in experiment [7] was more than 100 µM; in [8] it was more than 100 µM; in [9], 62.1 µM; in [10], more than 100 µM; in experiment [11], more than 100 µM; in [12], more than 100 µM. The TGI in experiment [13] was more than 100 µM; in experiment [14], 98.6 µM; in experiment [15], 49.2 µM; in experiment [16] it was more than 100 µM; in [17] it was more than 100 µM; in experiment [18], 49.3 µM.

With `CC(C)(C)OC(=O)NCCCCC(N)C(N)=O` (stereo not given), the concentration for total growth inhibition (TGI) in experiment [1], in experiment [2], in experiment [3], in experiment [4], in experiment [5] and in experiment [19] was more than 100 µM each time. Also, the TGI in [6], in experiment [7], in experiment [9], in experiment [10], in experiment [11] and in experiment [12] was more than 100 µM in each case. For the same compound, the TGI in [13], in experiment [14], in experiment [15], in experiment [16], in [17] and in experiment [18] was more than 100 µM each time.

With `O=C1/C(=C/c2ccccc2)CCCC1CN1CCCCC1` (stereo not given), the TGI is 30.4 µM in [1]; 34.9 µM in experiment [2]; 3.2 µM in experiment [3]; 10.4 µM in experiment [4]; 28.8 µM in experiment [5]; 29 µM in experiment [19]. Besides, the TGI came to 3.15 µM in experiment [6]; 4.85 µM in [7]; 16.9 µM in experiment [9]; 2.98 µM in [10]; 3.3 µM in [12]; 13 µM in experiment [13]. In addition, the TGI in [14] came out at 3.24 µM; in [15] it was 3.83 µM; in experiment [16], 15.8 µM; in experiment [17], 18.5 µM; in [18], 3.82 µM.

As for `CC(=O)N(C)SCC(NC(=O)C(Cc1ccccc1)NC(=O)OCc1ccccc1)C(=O)NC(Cc1ccccc1)C(=O)NC(Cc1cn(C=O)c2ccccc12)C(=O)NC(CCCCNC(=O)OCc1ccccc1)C(=O)NC(C(=O)NC(CSN(C)C(C)=O)/C(O)=N\O)C(C)OCc1ccccc1` (stereo not given) (Cbz-F[X31]FW(For)K(Cbz)T(Bn)-X47; configuration not given here), the TGI in experiment [2], in experiment [4], in experiment [5], in experiment [19], in [6] and in experiment [7] was more than 100 µM each time. Also, the TGI in experiment [8], in experiment [9], in experiment [10], in experiment [11], in experiment [12] and in experiment [13] was more than 100 µM each time. Moreover, the TGI in [14], in experiment [15], in experiment [16], in [17] and in experiment [18] was more than 100 µM throughout.

Consider `Cc1ccc2c3c1O[C@H]1c4[nH]c5ccccc5c4C[C@@]4(O)[C@@H](C2)N(C)CC[C@]314`, for which the concentration for total growth inhibition (TGI) in experiment [1] is 32.3 µM; in [2] it was 32.9 µM; in experiment [3], 34.4 µM; in experiment [4], 30.2 µM; in [6], 31 µM; in experiment [7] it was 32.5 µM. Further, the TGI worked out at 30.7 µM in [8]; 21.5 µM in experiment [9]; 25.6 µM in experiment [10]; 36.8 µM in experiment [11]; 29.6 µM in experiment [12]; 35.8 µM in experiment [13]. Besides, the TGI was found to be 34 µM in experiment [15], 35.3 µM in [16], 39.4 µM in experiment [17] and 27.1 µM in experiment [18].

For `CCOC(=O)c1c2c3c(cccc3[nH]c1=O)Sc1ncccc1-2`, the TGI in experiment [2] is 85.3 µM; in [3] it was 70.7 µM; in [4], more than 100 µM; in experiment [5] it was more than 100 µM; in experiment [19], more than 100 µM; in experiment [6] it was more than 100 µM. In addition, the total growth inhibition concentration (TGI) in experiment [7] is more than 100 µM; in experiment [8] it was 86.4 µM; in experiment [9] it was more than 100 µM; in experiment [10] it was 94.9 µM; in experiment [11] it was more than 100 µM; in experiment [12] it was more than 100 µM. The concentration for total growth inhibition (TGI) in experiment [13] was more than 100 µM; in experiment [14], more than 100 µM; in experiment [15] it was more than 100 µM; in [16] it was more than 100 µM; in [17], more than 100 µM; in [18] it was 81.5 µM.

Regarding `COc1ccc(C2=CC(c3ccccc3)n3nnnc3N2)cc1` (stereo not given), the TGI in experiment [2], in experiment [3], in experiment [4], in [6], in [7] and in experiment [8] was more than 100 µM throughout. Besides, the TGI in [9], in experiment [10], in experiment [11], in experiment [12], in [13] and in experiment [14] was more than 100 µM in each case. The TGI in experiment [16], in experiment [17] and in experiment [18] was more than 100 µM in each case.

Take `Cc1ccc(S(=O)(=O)N2CCCN(S(=O)(=O)c3ccc(C)cc3)CCN(S(=O)(=O)c3ccc(C)cc3)CCCSCC2)cc1`: the TGI in experiment [1], in experiment [2], in [4], in experiment [5], in experiment [19] and in experiment [6] was more than 100 µM each time. The TGI in experiment [8], in experiment [9], in [10], in experiment [11], in experiment [13] and in experiment [14] was more than 100 µM each time. The TGI in [15], in experiment [16], in experiment [17] and in [18] was more than 100 µM throughout.

On to `C=CCn1c(=O)c2ccccc2[n+]2c(C)c(C(=O)OCC)sc12`, for which the TGI in [2], in experiment [3], in experiment [4], in experiment [5], in [19] and in experiment [6] was more than 100 µM throughout. Moreover, the concentration for total growth inhibition (TGI) in [7], in experiment [8], in experiment [9], in experiment [10], in [11] and in experiment [12] was more than 100 µM throughout. Also, the TGI in experiment [13], in experiment [14], in experiment [15], in [16], in experiment [17] and in [18] was more than 100 µM in each case.

On to `COc1cc2c[n+](C)c3c4cc(OC)c(OC)cc4c(OC)cc3c2cc1OC`, for which the total growth inhibition concentration (TGI) in [1] is more than 100 µM; in [2], more than 100 µM; in experiment [3], more than 100 µM; in [4] it was 4.41 µM; in experiment [5] it was more than 100 µM; in experiment [19], more than 52.1 µM. Besides, the TGI in [6] was more than 43.6 µM; in experiment [7], more than 100 µM; in [9], 12.6 µM; in experiment [10], more than 46.7 µM; in [11] it was more than 41.5 µM; in [12], more than 76.5 µM. In addition, the TGI is more than 100 µM in experiment [13]; more than 34.6 µM in [14]; more than 69.5 µM in experiment [15]; more than 86 µM in experiment [16]; more than 100 µM in experiment [18].

On to `COC(=O)CCc1cc(OC)c(O)c(C(Cc2ccc(OC)c(OC)c2)C(=O)OC)c1` (stereo not given), for which the TGI in experiment [1], in experiment [2], in [4], in experiment [5], in experiment [19] and in [6] was more than 100 µM throughout. For the same compound, the TGI in [7], in [8], in experiment [9], in experiment [10], in [11] and in experiment [12] was more than 100 µM throughout. The concentration for total growth inhibition (TGI) in experiment [13], in experiment [14], in experiment [15], in experiment [16], in experiment [17] and in experiment [18] was more than 100 µM in each case.

As for `COc1ccc(/C=C2\CCC(C)C3=C(c4ccc(OC)c(OC)c4)C(C#N)=C(N)OC32)cc1OC` (stereo not given), the TGI in experiment [1] is 51.9 µM; in [3], more than 100 µM; in experiment [4] it was 7.74 µM; in experiment [5], 8.12 µM; in experiment [6] it was 20.2 µM; in experiment [7], 38 µM. Moreover, the TGI is 7.75 µM in [8]; more than 100 µM in experiment [9]; more than 100 µM in experiment [11]; 10.9 µM in experiment [12]; 39.4 µM in experiment [13]; 48.3 µM in experiment [14]. Also, the TGI in experiment [16] is 5.63 µM; in experiment [17], 28.2 µM; in experiment [18], 8.4 µM.

For the compound `CC(=O)Nc1ccc(Nc2cc(=O)[nH]c(=O)[nH]2)cc1`, the TGI in [1], in [2], in experiment [4], in experiment [5], in experiment [19] and in [6] was more than 100 µM throughout. In addition, the concentration for total growth inhibition (TGI) in experiment [7], in experiment [8], in experiment [9], in experiment [10], in [11] and in experiment [12] was more than 100 µM in each case. Also, the TGI in [13], in experiment [14], in experiment [15], in experiment [17] and in experiment [18] was more than 100 µM in each case.

For the compound `CCCCCC(C)(C)CCC(=O)OC1OC(COC2OC(COC3OC(CO)C(O)C(O)C3O)C(O)C(O)C2O)C(O)C(O)C1O` (stereo not given), the TGI in experiment [1], in experiment [2], in experiment [4], in experiment [5], in experiment [19] and in [6] was more than 100 µM each time. For the same compound, the TGI in experiment [7], in experiment [8], in [9], in experiment [10], in [11] and in [12] was more than 100 µM each time. The TGI in experiment [13], in [14], in [16], in experiment [17] and in experiment [18] was more than 100 µM throughout.

As to `COC(=O)c1c2c(cc3c1CC1(Cc4cc5c(c(C=O)c4C1)CCCC5)C3)CCCC2` (stereo not given), the TGI in experiment [1] was more than 100 µM; in experiment [2] it was more than 100 µM; in experiment [4], 36.6 µM; in [5], more than 100 µM; in experiment [19], more than 100 µM; in experiment [6], 47.3 µM. The TGI in experiment [7] is more than 100 µM; in experiment [8] it was 59.9 µM; in experiment [9], more than 100 µM; in [10] it was more than 100 µM; in [11], 85.3 µM; in experiment [12], more than 100 µM. In addition, the TGI in experiment [13] is more than 100 µM; in experiment [14] it was more than 100 µM; in experiment [15], more than 100 µM; in experiment [16], 85.1 µM; in experiment [17] it was more than 100 µM; in experiment [18] it was 0.268 µM.
